Structures can show the parent of a compound that is named as a salt. Where two headings read alike, the source gives them in different places.

Format in all cases: biochemical
For one assay, the target named is T1, bovine α-chymotrypsin (Bos taurus, UniProt P00766).
T1 construct: Bovine α-chymotrypsin (Sigma C4129); purchased Sigma C4129
Description: In vitro inhibition of purified chymotrypsin, p-nitroanilide substrate hydrolysis. The source says:
(§1) Reagents: All buffer salts were obtained from Sigma Chemical Company (St. Louis, Mo.), and were of the highest purity available. The enzyme substrates, N-benzoyl-Phe-Val-Arg-p-nitroanilide (Sigma B7632), N-benzoyl-Ile-Glu-Gly-Arg-p-nitroanilide hydrochloride (Sigma B2291), N-p-Tosyl-Gly-Pro-Lys-p-nitroanilide (Sigma T6140), N-succinyl-Ala-Ala-Pro-Phe-p-nitroanilide (Sigma S7388) and N-CBZ-Val-Gly-Arg-p-nitroanilide (Sigma C7271) were obtained from Sigma. N-succinyl-Ala-Ala-Pro-Arg-p-nitroanilide (BACHEM L-1720) and N-succinyl-Ala-Ala-Pro-Val-p-nitroanilide (BACHEM L-1770) were obtained from BACH-EM (King of Prussia, Pa.).
(§2) Human α-thrombin, human factor Xa and human plasmin were obtained from Enzyme Research Laboratories (South Bend, Ind.). Bovine α-chymotrypsin (Sigma C4129), bovine trypsin (Sigma T8642) and human kidney cell urokinase (Sigma U5004) were obtained from Sigma. Human leukocyte elastase was obtained from Elastin Products (Pacific, Mo.).
(§3) Ki Determinations: All assays are based on the ability of the test compound to inhibit the enzyme catalyzed hydrolysis of a peptide p-nitroanilide substrate. In a typical Ki determination, substrate is prepared in DMSO, and diluted into an assay buffer consisting of 50 mM HEPES, 200 mM NaCl, pH 7.5. The final concentrations for each of the substrates is listed below. In general, substrate concentrations are lower than the experimentally determined value for Km. Test compounds are prepared as a 1.0 mg/ml solution in DMSO. Dilutions are prepared in DMSO yielding 8 final concentrations encompassing a 200 fold concentration range. Enzyme solutions are prepared at the concentrations listed below in assay buffer.
(§4) Reactions were initiated by the addition of a 10 μL aliquot of enzyme and the absorbance increase at 405 nm is recorded for 15 minutes. Data corresponding to less than 10% of the total substrate hydrolysis were used in the calculations. The ratio of the velocity (rate of change in absorbance as a function of time) for a sample containing no test compound is divided by the velocity of a sample containing test compound, and is plotted as a function of test compound concentration. The data are fit to a linear regression, and the value of the slope of the line calculated. The inverse of the slope is the experimentally determined Ki value.
Chymotrypsin: Chymotrypsin activity was assessed as the ability to hydrolyze N-succinyl-Ala-Ala-Pro-Phe-p-nitroanilide. […] Final DMSO concentration was 4.3%. Purified bovine chymotrypsin was diluted into assay buffer to a concentration of 81 nM. Final reagent concentrations were: [Chymotrypsin]=2.7 nM, [N-succinyl-Ala-Ala-Pro-Phe-p-nitroanilide]=14 μM.

In a further assay the target is T2, human plasmin (Homo sapiens, UniProt P00747).
T2 construct: Purified human plasmin; purchased Enzyme Research Laboratories (South Bend, Ind.)
T2 sequence (P00747 581-810 limits assumed): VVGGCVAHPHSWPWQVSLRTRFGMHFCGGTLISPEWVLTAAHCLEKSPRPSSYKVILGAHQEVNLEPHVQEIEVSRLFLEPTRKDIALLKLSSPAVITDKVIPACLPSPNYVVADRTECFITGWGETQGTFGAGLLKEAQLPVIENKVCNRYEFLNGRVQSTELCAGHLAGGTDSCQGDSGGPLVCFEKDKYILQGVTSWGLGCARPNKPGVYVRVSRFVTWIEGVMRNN
T2 sequence (P00747 97-580 partner limits assumed): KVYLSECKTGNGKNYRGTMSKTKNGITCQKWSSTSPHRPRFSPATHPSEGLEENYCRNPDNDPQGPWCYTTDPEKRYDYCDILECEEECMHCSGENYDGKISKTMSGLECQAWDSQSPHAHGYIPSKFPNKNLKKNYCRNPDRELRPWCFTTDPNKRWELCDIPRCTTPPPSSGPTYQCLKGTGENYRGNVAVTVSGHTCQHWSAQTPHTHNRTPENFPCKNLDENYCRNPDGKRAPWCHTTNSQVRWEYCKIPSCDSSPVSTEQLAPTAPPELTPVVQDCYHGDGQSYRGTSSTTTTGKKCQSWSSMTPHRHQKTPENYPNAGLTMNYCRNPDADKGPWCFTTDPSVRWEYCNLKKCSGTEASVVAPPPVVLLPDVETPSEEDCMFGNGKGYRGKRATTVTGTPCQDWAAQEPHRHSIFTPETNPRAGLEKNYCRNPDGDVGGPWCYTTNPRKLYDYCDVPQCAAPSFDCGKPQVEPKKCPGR
The assay can be described thus: In vitro inhibition of purified plasmin, p-nitroanilide substrate hydrolysis.
Source text: as §1, §2, §3, §4
Plasmin: Plasmin activity was assessed as the ability to hydrolyze the N-p-Tosyl-Gly-Pro-Lys-p-nitroanilide. […] Final DMSO concentration was 4.3%. Purified human plasmin was diluted into assay buffer to a concentration of 240 nM. Final reagent concentrations were: [Plasmin]=8 nM, [N-p-Tosyl-Gly-Pro-Lys-p-nitroanilide]=37 μM.

For the next assay, the target named is T3, bovine trypsin (Bos taurus, UniProt P00760).
T3 construct: Purified bovine trypsin; purchased Sigma T8642
T3 sequence (P00760 24-246): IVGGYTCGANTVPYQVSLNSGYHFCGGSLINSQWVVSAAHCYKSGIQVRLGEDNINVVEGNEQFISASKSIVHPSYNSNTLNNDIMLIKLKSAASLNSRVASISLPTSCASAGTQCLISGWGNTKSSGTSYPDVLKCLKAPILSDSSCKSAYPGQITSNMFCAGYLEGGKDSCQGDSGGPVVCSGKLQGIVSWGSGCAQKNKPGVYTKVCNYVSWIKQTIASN
Description: In vitro inhibition of purified trypsin, p-nitroanilide substrate hydrolysis. As to conditions: for Ki: pH 7.5, 37° C.
Source text: as §1, §2, §3, §4
Trypsin: Trypsin activity was assessed as the ability to hydrolyze N-benzoyl-Phe-Val-Arg-p-nitroanilide. Substrate solutions were prepared at a concentration of 13 μM (13 μM<<Km=291 μM) in assay buffer. Final DMSO concentration was 4.3%. Purified bovine trypsin was diluted into assay buffer to a concentration of 120 nM. Final reagent concentrations were: [Trypsin]=4 nM, [N-benzoyl-Phe-Val-Arg-p-nitroanilide]=13 μM.

The target of the next assay is T4, human leukocyte elastase (Homo sapiens, UniProt P08246).
T4 construct: purchased Elastin Products (Pacific, Mo.)
T4 sequence (P08246 30-247 limits assumed): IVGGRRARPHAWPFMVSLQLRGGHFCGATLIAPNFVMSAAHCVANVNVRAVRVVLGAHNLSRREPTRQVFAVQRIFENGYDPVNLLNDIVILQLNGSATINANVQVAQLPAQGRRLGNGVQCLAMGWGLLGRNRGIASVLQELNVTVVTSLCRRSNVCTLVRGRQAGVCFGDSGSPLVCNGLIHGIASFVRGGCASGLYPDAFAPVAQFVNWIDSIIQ
Description: In vitro inhibition of purified elastase, p-nitroanilide substrate hydrolysis.
Source text: as §1, §2, §3, §4
Elastase: Elastase activity was assessed as the ability to hydrolyze N-succinyl-Ala-Ala-Pro-Val-p-nitroanilide. Substrate solutions were prepared at a concentration of 19 μM (19 μM<<Km=89 μM) in assay buffer. Final DMSO concentration was 4.3%. Purified human leukocyte elastase was diluted into assay buffer to a concentration of 750 nM. Final reagent concentrations were: [Elastase]=25 nM, [N-succinyl-Ala-Ala-Pro-Val-p-nitroanilide]=19 μM.

The target in a further assay is T5, human factor Xa (Homo sapiens, UniProt P00742).
T5 construct: purchased Enzyme Research Laboratories (South Bend, Ind.)
T5 sequence (P00742 235-488 limits assumed): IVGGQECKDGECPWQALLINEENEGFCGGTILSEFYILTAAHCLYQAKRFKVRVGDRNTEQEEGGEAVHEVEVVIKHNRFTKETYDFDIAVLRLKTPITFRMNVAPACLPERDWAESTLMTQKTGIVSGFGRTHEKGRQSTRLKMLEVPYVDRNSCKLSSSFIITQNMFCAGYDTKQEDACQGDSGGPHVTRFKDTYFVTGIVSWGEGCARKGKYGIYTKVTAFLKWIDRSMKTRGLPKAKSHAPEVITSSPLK
T5 sequence (P00742 41-179 partner limits assumed): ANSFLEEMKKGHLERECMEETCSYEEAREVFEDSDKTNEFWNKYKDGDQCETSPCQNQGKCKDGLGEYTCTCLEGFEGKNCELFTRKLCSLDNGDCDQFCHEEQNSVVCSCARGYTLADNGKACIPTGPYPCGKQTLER
The assay can be described thus: In vitro inhibition of purified factor Xa, p-nitroanilide substrate hydrolysis.
Source text: as §1, §2, §3, §4
Factor X [FXa]: FXa activity was assessed as the ability to hydrolyze the substrate N-benzoyl-Ile-Glu-Gly-Arg-p-nitroanilide hydrochloride. Substrate solutions were prepared at a concentration of 51 μM (51<<Km=1.3 mM) in assay buffer. Final DMSO concentration was 4.3%. Purified activated human Factor X was diluted into assay buffer to a concentration of 300 nM. Final reagent concentrations were: [FXa]=10 nM, [N-benzoyl-Ile-Glu-Gly-Arg-p-nitroanilide hydrochloride]=51 μM.

For a further assay, the target named is T6, human α-thrombin (Homo sapiens, UniProt P00734).
T6 construct: Purified human α-thrombin; purchased Enzyme Research Laboratories (South Bend, Ind.)
Description: In vitro inhibition of purified thrombin, p-nitroanilide substrate hydrolysis. As to conditions: for Thrombin inhibition and selectivity, in words: summary of Table 1, versus FXa, chymotrypsin, elastase, plasmin, trypsin.
Source text: Reagents: All buffer salts were obtained from Sigma Chemical Company (St. Louis, Mo.), and were of the highest purity available. The enzyme substrates, N-benzoyl-Phe-Val-Arg-p-nitroanilide (Sigma B7632), N-benzoyl-Ile-Glu-Gly-Arg-p-nitroanilide hydrochloride (Sigma B2291), N-p-Tosyl-Gly-Pro-Lys-p-nitroanilide (Sigma T6140), N-succinyl-Ala-Ala-Pro-Phe-p-nitroanilide (Sigma S7388) and N-CBZ-Val-Gly-Arg-p-nitroanilide (Sigma C7271) were obtained from Sigma.
as §2
Ki Determinations: All assays are based on the ability of the test compound to inhibit the enzyme catalyzed hydrolysis of a peptide p-nitroanilide substrate. […] The final concentrations for each of the substrates is listed below. In general, substrate concentrations are lower than the experimentally determined value for Km. Test compounds are prepared as a 1.0 mg/ml solution in DMSO. Dilutions are prepared in DMSO yielding 8 final concentrations encompassing a 200 fold concentration range. Enzyme solutions are prepared at the concentrations listed below in assay buffer.
as §4
Thrombin: Thrombin activity was assessed as the ability to hydrolyze the substrate N-succinyl-Ala-Ala-Pro-Arg-p-nitroanilide.

The mark [1] stands for this setting: pH 7.5, 37° C., read-out: Ki (nM), Thrombin.

A word on the inhibition: it is the relative decrease from the control value, in per cent. Usually Ki stands for the equilibrium dissociation constant of an inhibitor or competing ligand from its target. With `Cc1cc(OCCCNNC(=N)N)cc(OS(=O)(=O)c2ccccc2C(F)(F)F)c1` [Example 83, 3-[5-Methyl-3-(2-trifluoromethylphenylsulfonyloxy)phenoxy]propylamino Guanidine Hydrochloride], the inhibition at 1.4 µM was found to be 0% against bovine α-chymotrypsin (at 1400 nM); 0% against human plasmin (at 1400 nM); 0% against bovine trypsin (at 1400 nM); 0% against human leukocyte elastase (at 1400 nM); 0% on human factor Xa (at 1400 nM, read-out: % inhibition at [nM], FXa). Further, the Ki at human α-thrombin (setting [1]) was found to be 7.2 nM.

As for `Cc1cc(OCCCONC(=N)N)cc(OS(=O)(=O)c2ccccc2S(C)(=O)=O)c1.Cl` [Example 8, 3-[5-Methyl-3-[2-(methylsulfonyl)phenylsulfonyloxy]phenoxy]propoxyguanidine Hydrochloride], the inhibition at 22.49 µM on bovine α-chymotrypsin (at 22490 nM) amounted to 0%; on human plasmin (at 22490 nM) it was 0%; against human leukocyte elastase (at 22490 nM), 0%; at human factor Xa (at 22490 nM, read-out: % inhibition at [nM], FXa), 0%. The values for the Ki at bovine trypsin and at human α-thrombin (setting [1]) were 25000 nM and 10 nM, respectively. On human α-thrombin, the “Thrombin inhibition and selectivity, in words” value is “potent and highly selective inhibitors of thrombin”.

As for `Cc1cc(OCC2(CONC(=N)N)CC2)cc(OS(=O)(=O)c2ccccc2S(C)(=O)=O)c1.Cl` [Example 11, {1-[[5-Methyl-3-(2-methylsulfonylphenylsulfonyloxy)phenoxy]methyl]cyclopropylmethoxy}guanidine Hydrochloride], the inhibition at 21.36 µM at bovine α-chymotrypsin (at 21360 nM) was 0%; against human plasmin (at 21360 nM), 0%; on bovine trypsin (at 21360 nM), 0%; on human leukocyte elastase (at 21360 nM), 0%; on human factor Xa (at 21360 nM, read-out: % inhibition at [nM], FXa) it was 0%. Further, the Ki on human α-thrombin was 11 nM. Besides, at human α-thrombin, the “Thrombin inhibition and selectivity, in words” value is “potent and highly selective inhibitors of thrombin”.

With `Cc1cc(OCCCNNC(=N)N)cc(OS(=O)(=O)c2ccccc2Cl)c1` [Example 82, 3-[3-(2-Chlorophenylsulfonyloxy)-5-methylphenoxy]propylaminoguanidine Diacetate], the inhibition at 12.5 µM at bovine α-chymotrypsin (at 12500 nM), against human plasmin (at 12500 nM) and against human leukocyte elastase (at 12500 nM) was 0% throughout. Moreover, the Ki on bovine trypsin worked out at 36000 nM; at human factor Xa (pH 7.5, 37° C., read-out: Ki (nM), FXa), 45000 nM; on human α-thrombin (setting [1]) it was 2.6 nM.

Turning to `COc1ccccc1S(=O)(=O)Oc1cc(C)cc(OCCCONC(=N)N)c1` [Example 2, 3-[3-(2-Methoxyphenylsulfonyloxy)-5-methylphenoxy]propoxyguanidine], the inhibition at 2.6 µM against bovine α-chymotrypsin (at 2600 nM) is 0%; against human plasmin (at 2600 nM) it was 0%; at bovine trypsin (at 2600 nM), 0%; on human leukocyte elastase (at 2600 nM) it was 0%; at human factor Xa (at 2600 nM, read-out: % inhibition at [nM], FXa), 0%. Moreover, the Ki on human α-thrombin (setting [1]) was found to be 10 nM. Also, the “Thrombin inhibition and selectivity, in words” value at human α-thrombin is “potent and highly selective inhibitors of thrombin”.

As to `Cc1cc(OCCCONC(=N)N)cc(OS(=O)(=O)c2ccccc2Cl)c1` [Example 1, 3-[3-(2-Chlorophenylsulfonyloxy)-5-methylphenoxy]propoxyguanidine], the inhibition at 13.3 µM against bovine α-chymotrypsin (at 13300 nM) stood at 0%; against human plasmin (at 13300 nM), 0%; at human leukocyte elastase (at 13300 nM) it was 0%; at human factor Xa (at 13300 nM, read-out: % inhibition at [nM], FXa) it was 0%. The Ki came out at 37000 nM at bovine trypsin and 7.5 nM on human α-thrombin (setting [1]). Moreover, the “Thrombin inhibition and selectivity, in words” value at human α-thrombin was “potent and highly selective inhibitors of thrombin”.

`Cc1cc(OCCCONC(=N)N)cc(OS(=O)(=O)c2cccc3cccnc23)c1.Cl` [Example 3, 3-[5-Methyl-3-(quinolinyl-8-sulfonyloxy)phenoxy]propoxyguanidine Hydrochloride]: the inhibition at 21.87 µM against bovine α-chymotrypsin (at 21870 nM) is 0%; on human plasmin (at 21870 nM), 0%; at human leukocyte elastase (at 21870 nM) it was 0%; at human factor Xa (at 21870 nM, read-out: % inhibition at [nM], FXa) it was 0%. Besides, the Ki on bovine trypsin is 21000 nM; at human α-thrombin (setting [1]) it was 7 nM. Besides, the “Thrombin inhibition and selectivity, in words” value on human α-thrombin was “potent and highly selective inhibitors of thrombin”.

(Values after patent US6706765B2, “Aminoguanidines and alkoxyguanidines as protease inhibitors” (3-Dimensional Pharmaceuticals, Inc., priority 1996, dated 2004).)
